Measured values taken from patent US6995183B2, “Adamantylglycine-based inhibitors of dipeptidyl peptidase IV and methods” (Bristol Myers Squibb Company, priority 2003, dated 2006).
pKi: −log10 of the molar value. Read-outs that look alike come from different tables or passages of the source.

What was measured:
[1] = biological target: T1, Porcine Dipeptidyl Peptidase IV (Sus scrofa, UniProt P22411); test: Assay of Porcine Dipeptidyl Peptidase IV, steady-state inhibition constants (Ki); type: biochemical; details: DPP-IV
T1 construct: left at 37° C. for 18 hours to facilitate cleavage of DPP-4 from cell membranes; from tissue; host or cells: pig kidney cortex
T1 sequence (P22411 38-766 limits assumed): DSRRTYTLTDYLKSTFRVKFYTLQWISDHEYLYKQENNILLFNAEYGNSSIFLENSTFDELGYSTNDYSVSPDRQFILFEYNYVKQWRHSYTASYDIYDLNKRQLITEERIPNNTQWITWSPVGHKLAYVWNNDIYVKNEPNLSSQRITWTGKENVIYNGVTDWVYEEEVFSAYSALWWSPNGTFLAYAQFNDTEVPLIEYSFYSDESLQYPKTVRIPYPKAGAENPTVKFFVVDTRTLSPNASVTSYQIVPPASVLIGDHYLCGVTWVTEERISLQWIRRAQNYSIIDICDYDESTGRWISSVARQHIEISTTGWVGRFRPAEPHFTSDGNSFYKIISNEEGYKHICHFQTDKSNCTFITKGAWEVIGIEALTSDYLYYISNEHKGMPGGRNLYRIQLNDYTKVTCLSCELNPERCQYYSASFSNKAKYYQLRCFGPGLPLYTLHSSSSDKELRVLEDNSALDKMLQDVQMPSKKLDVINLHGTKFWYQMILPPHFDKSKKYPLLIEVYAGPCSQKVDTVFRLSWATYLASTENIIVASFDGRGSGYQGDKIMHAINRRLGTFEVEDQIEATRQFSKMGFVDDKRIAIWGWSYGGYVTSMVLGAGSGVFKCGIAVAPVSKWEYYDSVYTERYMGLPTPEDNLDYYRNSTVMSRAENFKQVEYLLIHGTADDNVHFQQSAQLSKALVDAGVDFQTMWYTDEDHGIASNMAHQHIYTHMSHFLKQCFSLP
Procedure: DPP-4 inhibitor activity of the compounds of the invention may be determined by use of an in vitro assay system which measures the potentiation of inhibition of DPP-4.
Porcine enzyme was purified as previously described in reference (2) below, with several modifications. Kidneys from 15-20 animals were obtained, and the cortex was dissected away and frozen at −80° C. Frozen tissue (2000-2500 g) was homogenized in 12 L of 0.25 M sucrose in a Waring blender. The homogenate then was left at 37° C. for 18 hours to facilitate cleavage of DPP-4 from cell membranes. After the cleavage step, the homogenate was clarified by centrifugation at 7000×g for 20 min at 4° C., and the supernatant was collected. […]
After dialysis against 20 mM Na2HPO4, pH 7.4, the preparation was clarified by centrifugation at 10,000×g. […] Purity of column fractions was analyzed by reducing SDS-PAGE, and the purest fractions were pooled and concentrated. […]
Enzyme was assayed under steady-state conditions as previously described in reference (2) below with gly-pro-p-nitroanilide as substrate, with the following modifications. […] A standard curve for p-nitroaniline absorbance was obtained at the beginning of each experiment, and enzyme catalyzed p-nitroaniline production was quantitated from the standard curve. […]

[2] = biological target: T2, plasma DPP-IV (Rattus norvegicus, UniProt P14740); test: Rat ex vivo plasma DPP-IV inhibition assay; type: in vivo, Zucker fa/fa rat; details: oral; for inhibition at 3 µmol/kg: rat, 3 μmol/kg
T2 construct: from tissue; host or cells: plasma of male Zucker fa/fa rats (Harlan)
T2 sequence (P14740 37-767 limits assumed): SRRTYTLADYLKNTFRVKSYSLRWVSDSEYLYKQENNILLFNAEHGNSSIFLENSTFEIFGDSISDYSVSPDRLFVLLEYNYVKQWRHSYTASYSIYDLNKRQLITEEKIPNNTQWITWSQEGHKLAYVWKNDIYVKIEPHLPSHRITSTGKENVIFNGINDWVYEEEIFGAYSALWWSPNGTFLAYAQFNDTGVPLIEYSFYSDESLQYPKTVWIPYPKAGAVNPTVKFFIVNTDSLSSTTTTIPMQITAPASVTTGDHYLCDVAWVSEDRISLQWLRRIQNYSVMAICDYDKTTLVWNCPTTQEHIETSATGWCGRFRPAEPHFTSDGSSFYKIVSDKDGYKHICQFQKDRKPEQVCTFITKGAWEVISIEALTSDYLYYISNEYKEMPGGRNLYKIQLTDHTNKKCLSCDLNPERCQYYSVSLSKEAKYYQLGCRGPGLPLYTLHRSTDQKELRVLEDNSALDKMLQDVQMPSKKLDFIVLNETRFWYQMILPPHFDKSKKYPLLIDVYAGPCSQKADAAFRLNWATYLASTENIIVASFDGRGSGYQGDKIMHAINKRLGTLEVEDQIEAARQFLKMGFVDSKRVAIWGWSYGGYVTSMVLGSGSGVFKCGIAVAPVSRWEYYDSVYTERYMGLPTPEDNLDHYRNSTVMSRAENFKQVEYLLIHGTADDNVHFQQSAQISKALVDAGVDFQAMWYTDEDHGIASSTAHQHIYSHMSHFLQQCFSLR

[3] = tested on: Zucker^fa/fa rat; test: Oral glucose tolerance test (OGTT) in Zucker fa/fa rats; type: in vivo; details: for glucose control after oral glucose challenge (in words): rodent model of impaired glucose homeostasis
Description: In vivo evaluation of DPP-IV inhibitors has supported the connection between DPP-IV inhibition, increases in plasma insulin levels, and an improvement in glucose tolerance.^1 Several compounds in the present series are potent inhibitors of DPP-IV in vitro. As such, these inhibitors were selected to determine the effects of DPP-IV inhibition ex vivo and on glucose tolerance in Zucker^fa/fa rat. The Zucker^fa/fa rat is a frequently used model in type II diabetes and obesity research. […] Plasma glucose levels were then monitored over a 2 h period. Columns 3 and 4 show the ex vivo plasma DPP-IV inhibition activity. […] In contrast, the adamantyl inhibitors show good inhibitory activity in the ex vivo assay, even at extended time points.
Male Zucker^fa/fa rats (Harlan) weighing between 400 and 450 g were housed in a room that was maintained on a 12 h light /dark cycle and were allowed free access to normal rodent chow and tap water. The day before the experiment, the rats were weighed and divided into control and treated groups of six. Rats were fasted 17 h prior to the start of the study. […] Two blood samples were collected at −30 and 0 min by tail bleed. Glucose (2 g/kg) was administered orally at 0 min. Additional blood samples were collected at 15, 30, 60, 90 and 120 min. Blood samples were collected into EDTA containing tubes from Starstedt. Plasma glucose was determined by Cobas Mira (Roche Diagnostics) by the glucose oxidation method.

[4] = Solution stability of 2-cyano-pyrrolidines; type: physicochemical
Procedure: In experiments at pH=7.2 and 39° C., the greater degree of β-branching the greater degree of stability associated with the compound. […] These are depected in the table below.

For N#CC1CC2CC2N1C(=O)[C@@H](N)C12CC3CC(O)(CC(O)(C3)C1)C2.O=C(O)C(F)(F)F (stereo in doubt) [Example 8, (S)-3,5-Dihydroxyadamantylglycine-L-cis-4,5-methanoprolinenitrile TFA salt], the pKi [1] was 7.77, the “% Inhibition in Rat Ex Vivo assay 3 μmol/kg 0.5 h post dose” value ([2]; 0.5 h post dose) was 80% and the “% Inhibition in Rat Ex Vivo assay 3 μmol/kg 4 h post dose” value ([2]; 4 h post dose) was 67%.
With N#C[C@@H]1CCCC1C(=O)C(N)C12CC3CC(CC(O)(C3)C1)C2 (stereo partly shown) [Example 9] the “glucose control after oral glucose challenge (in words)” value [3] was “good glucose control”.
In the case of CC12CC3(C)CC(O)(C1)CC([C@H](N)C(=O)N1CCCC1)(C2)C3 [Example 5, (3-hydroxy-5,7-dimethyladamant-1-yl)-glycine pyrrolidine amide], the pKi [1] was 6.88, the inhibition at 3 µmol/kg ([2]; 0.5 h post dose, read-out: % Inhibition in Rat Ex Vivo assay 3 μmol/kg 0.5 h post dose) was 70% and the inhibition at 3 µmol/kg ([2]; 4 h post dose, read-out: % Inhibition in Rat Ex Vivo assay 3 μmol/kg 4 h post dose) was 66%. The “Glucose Lowering at 4 h; % AUC's, compared to control” value (“Glucose Lowering at 4 h; % AUC's” below) ([3]; oral, 3 μmol/kg, oral glucose 2 g/kg) was −39%.
With tert-Leucine-cyanopyrrolide the “times more stable than Ref. Std. 1” value ([4]; pH=7.2, 39° C., ratio of t1/2) was ~6.
With CC[C@H](C)[C@H](N)C(=O)N1CCC[C@H]1C#N [Ref. Std 1, iso-Leucine-cyanopyrrolide] the “Glucose Lowering at 4 h; % AUC's” value ([3]; dosed at 16 μm/kg) was −11%, the “Glucose Lowering at 4 h; % AUC's” value ([3]; dosed at 200 μm/kg) was −19% and the “glucose control after oral glucose challenge (in words)” value [3] was “only a slight change in glucose control”. For the same molecule, the half-life ([4]; pH 7.2) was 300 min.
